Reference: paper PMC10447463, “Data-mining unveils structure–property–activity correlation of viral infectivity enhancing self-assembling peptides” (Nature Communications, 2023)
Where two headings read alike, the source gives them in different places.

Key:
[1] = format: physicochemical; details: for ThT Cat. / ThT-Fluorescence (categorical): ThT-active if fluorescence at least twice the control
Method in brief: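 Fibrils (1 mg/mL solution) were mixed with 50 µM ThT in PBS for 15 min at RT, and fluorescence was read at λex 440/λem 488 nm against a PBS blank, as a triplicate mean ± SD. Zeta potential came from electrophoretic mobility (Smoluchowski) after 1 d aggregation at 1 mg/mL in PBS pH 7.4, diluted into 1 mM KCl.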

[2] = format: physicochemical; design: key to Fibril / Fibril Formation / TEM 2cat / Fibril: 1 = fibrils present; 0 non-fibrillar structures; details: for Fibril / Fibril Formation: 1 mg/mL, uranyl acetate stain, qualitative
[3] = Turbidity, derived count rate of scattered light; format: physicochemical; details: for Count Rate: derived count rate of scattered light (turbidity); for Log10 Count Rate: turbidity, derived count rate of scattered light, data of Figure 2D
[4] = Conversion rate (CR) assay with fluorescamine; format: physicochemical; design: key to CR: % = 100−100×filtrate/original fluorescence intensity; details: conversion rate, fluorescamine assay; for CR / %: Fig. S7 panel B
Method in brief: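 β-sheet content came from ATR FT-IR spectra of lyophilized 1 mg/mL nanofibril solution (64 scans, 2 cm^-1 resolution). Conversion was measured by separating free monomer with a 3 kDa cutoff filter, then comparing fluorescamine fluorescence (ex 365/em 470 nm, 20 min RT) of filtrate versus unfiltered sample, in triplicate.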

[5] = FigS12 panel A, fibril category by TEM
[6] = TEM, 1 = fibrils present, 0 = non-fibrillar
[7] = TEM, 1 = fibrils present, 0 = non-fibrillar structures
[8] = ThT fluorescence category, 1 if Rel. ThT >2
[9] = category: fibrils present or non-fibrillar

Substance	Tht category (> 2 to blank = +) ([1]; Fig S10 panel D)	ThT Cat. ([1]; Fig S10 panel E)	Tht category (> 2 to blank = +) ([1]; FigS12 panel A)	ThT Cat, ([1]; FigS12 panel B)	ThT Cat, ([1]; ThT category, 1 if Rel. ThT >2)	ThT Cat. ([1]; ThT category, 1 if Rel. ThT >2)	ThT Cat. / ThT-Fluorescence (categorical) [1]	TEM 2cat ([2]; Fig S10 panel D)	Fibril ([2]; Fig S10 panel E)	TEM 2cat [2, 5]	Fibril ([2]; FigS12 panel B, TEM)	Fibril / Fibril Formation ([2]; TEM)	Fibril [2, 6]	Fibril [2, 7]	Count Rate [3]	Log10 Count Rate [3]	CR / % [4]	CR [4]	ThT Cat. [1, 8]	TEM 2cat [2, 9]
KNERIKNERI	0 (ThT-inactive (N-Fold <2))	0 (ThT-inactive (N-Fold <2))	0 (ThT-inactive (N-Fold <2))	0 (ThT-inactive (N-Fold <2))	0 (ThT-inactive (N-Fold <2))	0 (ThT-inactive (N-Fold <2))	0 (ThT-inactive (N-Fold <2))	0	0	0	0	0	0	0	321.9	2.508	54.4%	54.36	–	–
KIKQIINM	0 (ThT-inactive (N-Fold <2))	0 (ThT-inactive (N-Fold <2))	–	–	0 (ThT-inactive (N-Fold <2))	–	0 (ThT-inactive (N-Fold <2))	1	1	–	–	1	1	1	2481	3.395	43%	43	0 (ThT-inactive (N-Fold <2))	1
CRFRVPF	0 (ThT-inactive (N-Fold <2))	0 (ThT-inactive (N-Fold <2))	0 (ThT-inactive (N-Fold <2))	0 (ThT-inactive (N-Fold <2))	0 (ThT-inactive (N-Fold <2))	0 (ThT-inactive (N-Fold <2))	0 (ThT-inactive (N-Fold <2))	0	0	0	0	0	0	0	73.97	1.869	97.1%	97.05	–	–
RGECKFKFQF	1 (ThT. Cat is 1, if Rel. ThT >2)	1 (ThT. Cat is 1, if Rel. ThT >2)	–	–	1 (ThT. Cat is 1, if Rel. ThT >2)	1 (ThT. Cat is 1, if Rel. ThT >2)	1 (ThT. Cat is 1, if Rel. ThT >2)	1	1	–	–	1	1	1	219.3	2.341	98.7%	98.71	–	1
CRFRFQF	1 (ThT. Cat is 1, if Rel. ThT >2)	1 (ThT. Cat is 1, if Rel. ThT >2)	–	–	1 (ThT. Cat is 1, if Rel. ThT >2)	1 (ThT. Cat is 1, if Rel. ThT >2)	1 (ThT. Cat is 1, if Rel. ThT >2)	1	1	–	–	1	1	1	390.5	2.592	98.1%	98.13	–	1
HRRHFRHKITKKK	0 (ThT-inactive (N-Fold <2))	0 (ThT-inactive (N-Fold <2))	0 (ThT-inactive (N-Fold <2))	0 (ThT-inactive (N-Fold <2))	0 (ThT-inactive (N-Fold <2))	0 (ThT-inactive (N-Fold <2))	0 (ThT-inactive (N-Fold <2))	0	0	0	0	0	0	0	9.5	0.9777	44.9%	44.91	–	–
RGDKIRGDKI	0 (ThT-inactive (N-Fold <2))	0 (ThT-inactive (N-Fold <2))	0 (ThT-inactive (N-Fold <2))	0 (ThT-inactive (N-Fold <2))	0 (ThT-inactive (N-Fold <2))	0 (ThT-inactive (N-Fold <2))	0 (ThT-inactive (N-Fold <2))	0	0	0	0	0	0	0	285.8	2.456	48.4%	48.38	–	–
KFKFQF	0 (ThT-inactive (N-Fold <2))	0 (ThT-inactive (N-Fold <2))	0 (ThT-inactive (N-Fold <2))	0 (ThT-inactive (N-Fold <2))	0 (ThT-inactive (N-Fold <2))	–	0 (ThT-inactive (N-Fold <2))	0	0	0	0	0	0	0	183.4	2.263	67.4%	67.4	0 (ThT-inactive (N-Fold <2))	–
CKIKQIINM	1 (ThT. Cat is 1, if Rel. ThT >2)	1 (ThT. Cat is 1, if Rel. ThT >2)	–	–	1 (ThT. Cat is 1, if Rel. ThT >2)	1 (ThT. Cat is 1, if Rel. ThT >2)	1 (ThT. Cat is 1, if Rel. ThT >2)	1	1	–	–	1	1	1	9058	3.957	45%	45	–	1
KIKIQINMWQ	1 (ThT. Cat is 1, if Rel. ThT >2)	1 (ThT. Cat is 1, if Rel. ThT >2)	–	–	1 (ThT. Cat is 1, if Rel. ThT >2)	1 (ThT. Cat is 1, if Rel. ThT >2)	1 (ThT. Cat is 1, if Rel. ThT >2)	1	1	–	–	1	1	1	2196	3.342	94.3%	94.34	–	1
QCKFKFQFNMWQ	0 (ThT-inactive (N-Fold <2))	–	–	–	0 (ThT-inactive (N-Fold <2))	0 (ThT-inactive (N-Fold <2))	0 (ThT-inactive (N-Fold <2))	1	1	–	–	1	1	1	1208	3.082	98.9%	98.91	–	1
RLRLTLC	0 (ThT-inactive (N-Fold <2))	0 (ThT-inactive (N-Fold <2))	0 (ThT-inactive (N-Fold <2))	0 (ThT-inactive (N-Fold <2))	0 (ThT-inactive (N-Fold <2))	0 (ThT-inactive (N-Fold <2))	0 (ThT-inactive (N-Fold <2))	1	1	1	1	1	1	1	125.6	2.0991	87.4%	87.44	–	–
CKFQC	0 (ThT-inactive (N-Fold <2))	0 (ThT-inactive (N-Fold <2))	0 (ThT-inactive (N-Fold <2))	0 (ThT-inactive (N-Fold <2))	0 (ThT-inactive (N-Fold <2))	0 (ThT-inactive (N-Fold <2))	0 (ThT-inactive (N-Fold <2))	0	0	0	0	0	0	0	130.4	2.115	33.2%	33.24	–	–
MDQMDQMDQMDQMDQ	0 (ThT-inactive (N-Fold <2))	0 (ThT-inactive (N-Fold <2))	0 (ThT-inactive (N-Fold <2))	0 (ThT-inactive (N-Fold <2))	0 (ThT-inactive (N-Fold <2))	0 (ThT-inactive (N-Fold <2))	0 (ThT-inactive (N-Fold <2))	0	0	0	0	0	0	0	9.6	0.9823	53%	53.03	–	–
